One test has as its system NMC-4 antibody. Nature of the test: Immunoblotting with conformation-dependent monoclonal antibody NMC-4. The test is classed as binding, murine. The procedure: Polypeptides expressed from p7E, p7D and pJD18 were further characterized by immunoblotting ("Western blotting") according to a standard procedure Burnett et al., A. Anal. Biochem., 112, 195-203, (1981) and as recommended by reagent suppliers. Samples containing approximately 10 μg of protein from the urea-solubilized and dialyzed inclusion body extracts of host cells (containing p7E, p7D and pJD18 plasmids) were subjected to electrophoresis on 10% polyacrylamide gels, Laemli, U.K. Nature, 227, 680-685 (1970), in the presence of 2% concentration of sodium dodecyl sulfate.
The proteins were blotted and immobilized onto a nitrocellulose sheet (Schleicher and Schuell, Keene, NH) and the pattern was then visualized using immunoreactivity.
The secondary antibody (^125 I-rabbit anti-mouse IgG), labelled by the method of Fraker, P.J. et al. Biochem. Biophys. Res. Commun., 80, 849-857 (1978)), was incubated for 60 minutes at 25° C. on the nitrocellulose sheet. After rinsing, the sheet was developed by autoradiography.
NMC-4 however, has as its epitope the domain of the von Willebrand factor subunit which contains the glycoprotein Ib binding site. […] Id. at 17903. […]
On the technique in general: A western blot detects proteins with antibodies after separation by electrophoresis.

The test system of test [1] is GPIbα. Nature of the test: Inhibition of 125I LJ-Ib1 antibody binding to platelets, no modulator. The procedure: (§1) To assess the inhibitory activity of p5E extracts on antibody binding, a concentration of LJ-Ib1 was first selected which would, in the absence of p5E extracts, provide half-maximal binding.
LJ-Ib1 was iodinated by the procedure of Fraker, D.J. et al., Biochem. Biophys. Res. Commun., 80, 849-857 (1978) using I^125 from Amersham, Arlington Heights, IL and Iodogen (Pierce Chemical Co., Rockford, IL). Washed platelets were prepared by the albumin density gradient technique of Walsh, et al., Br. J. Haematol., 36, 281-298 (1977), and used at a count of 1 x 10^8 /ml.
The p5E polypeptide extract was purified according to the procedure of Example 4 including final purification of the urea-solubilized inclusion body preparation by dialysis against 6.0M guanidine and urea solutions followed by Q-Sepharose® chromatography.
To evaluate binding, platelets were incubated for 30 minutes at 22-25° C. with LJ-Ib1 (10 μg/ml) and concentrations of purified p5E protein (.002-10.0 μMolar) as indicated in FIGS. 3A and 3B. Inhibition was plotted in the presence of 2 μg/ml botrocetin, Sigma Chemical Co., St. Louis, MO, (FIG. 3B) and in the absence of botrocetin (FIG. 3A).
Less than 5 percent of the ^125 I label bound to the platelets was contributed by labelled substances other than LJ-Ib1 as determined by binding competition experiments in the presence of a 100 fold excess of unlabelled LJ-Ib1. Background labelling was subtracted from data points. Binding of ^125 I LJ-Ib1 was expressed as a percentage of a control assay lacking recombinant polypeptides. […] It is known that botrocetin induces in circulating multisubunit von Willebrand factor and single subunits thereof a conformational change which enhances or permits binding to the GPIbα receptor. […] Structural similarity is therefore indicated.
The interaction the mutant molecules with GPIbα was evaluated using an assay (Sugimoto, M. et al., Biochemistry, 30, 5202-5209 (1991)) based on inhibition of binding of antibody LJ-Ib1 to platelets. The corresponding IC50 values (concentration of fragment required to inhibit 50% of antibody binding) are presented in Table 2 (no modulator) and Table 3 (botrocetin added).
The interaction of rvWF^441-733 with GPIbα was measured by the ability of rvWF^441-733 to inhibit the binding of an anti-GPIbα monoclonal antibody, LJ-IB1, to platelets. This assay, previously described in detail, (Sugimoto, M. et al., Biochemistry, 30, 5202-5208 (1991)) offers the advantage that the binding of LJ-Ib1, unlike that of native vWF, is not dependent on the presence of modulators, like ristocetin or botrocetin. Binding by vWF^441-733 to GPIbα is thought to block the region of GPIbα to which LJ-Ib1 binds.

The subject of test [2] is GPIbα. Nature of the test: Inhibition of 125I LJ-Ib1 antibody binding to platelets in the presence of botrocetin. Conditions: botrocetin 2 μg/ml; LJ-Ib1 10 μg/ml; purified p5E protein; read-out: 50% inhibition of 125I LJ-Ib1 binding to platelets. How it is done:
as §1
LJ-Ib1 was iodinated by the procedure of Fraker, D.J. et al., Biochem. Biophys. Res. Commun., 80, 849-857 (1978) using I^125 from Amersham, Arlington Heights, IL and Iodogen (Pierce Chemical Co., Rockford, IL). Washed platelets were prepared by the albumin density gradient technique of Walsh, et al., Br. J. Haematol., 36, 281-298 (1977), and used at a count of 1 x 10^8 /ml. […]
Less than 5 percent of the ^125 I label bound to the platelets was contributed by labelled substances other than LJ-Ib1 as determined by binding competition experiments in the presence of a 100 fold excess of unlabelled LJ-Ib1. […] Binding of ^125 I LJ-Ib1 was expressed as a percentage of a control assay lacking recombinant polypeptides. […]
The interaction the mutant molecules with GPIbα was evaluated using an assay (Sugimoto, M. et al., Biochemistry, 30, 5202-5209 (1991)) based on inhibition of binding of antibody LJ-Ib1 to platelets. […]
The interaction of rvWF^441-733 with GPIbα was measured by the ability of rvWF^441-733 to inhibit the binding of an anti-GPIbα monoclonal antibody, LJ-IB1, to platelets. […]

Where [3] appears, read: oxidized form (Cys509-Cys695 bond), absence of modulators, range of results over n experiments, read-out: (Oxidized) IC50.
The mark [4] stands for this setting: reduced/alkylated form, absence of modulators, range of results over n experiments, read-out: (Reduced/alkylated) IC.

Regarding “rvWF^441-733: recombinant vWF residue 441-733 fragment from p5E; Cys 459, 462, 464, 471, 474 replaced by Gly; Cys509-Cys695 retained; oxidized or reduced/alkylated”, the “Increase in binding affinity for NMC-4 compared to cysteine-free p7E species” value in the test with NMC-4 antibody (nonreducing conditions, single chain species, immunoblot) is listed as ~120 fold. In addition, the “Affinity for NMC-4 after electrophoresis under reducing conditions” value in the test on NMC-4 antibody (reducing conditions, 100 mM DTT) is on record as “remarkably decreased affinity for NMC-4”. Further, the “IC50 of reduced and alkylated form relative to oxidized form” value with GPIbα [1] (absence of modulator, FIG. 3A) is given as “more than ten fold lower”. For the same substance, the IC50 was 3000 to 5000 nM with GPIbα [1] (setting [3]); 70 to 300 nM in the test with GPIbα [1] (setting [4]); 10000 nM in the test on GPIbα [1] (without botrocetin, LJ-Ib1 10 μg/ml, purified p5E protein, read-out: Fifty percent inhibition of 125I LJ-Ib1 binding to platelets); < 100 nM in the test on GPIbα [2].
On to “rvWF^441-704: C-terminal deletion fragment of the p5E vWF polypeptide terminating at residue 704”, for which the values for the IC50 with GPIbα [1] (setting [3]) and with GPIbα [1] (setting [4]) were 2600 to 3200 nM and 30 to 40 nM, respectively.
With “rvWF^441-696: C-terminal deletion fragment of the p5E vWF polypeptide terminating at residue 696”, the values for the IC50 in the test on GPIbα [1] (setting [3]) and with GPIbα [1] (setting [4]) were 1000 to 1300 nM and > 4000 nM, respectively. For the same substance, in the test with GPIbα [1] (reduced and alkylated form, Table 2), the “Ability to inhibit LJ-Ib1 binding to platelets / affinity for GPIbα relative to rvWF^441-733” value is “greatly reduced ability to inhibit LJ-Ib1 binding to platelets”.
For the substance “rvWF^441-700: C-terminal deletion fragment of the p5E vWF polypeptide terminating at residue 700”, the IC50 with GPIbα [1] (setting [3]) is 2000 to 3100 nM; in the test on GPIbα [1] (setting [4]), 500 nM.
